Laboratory results: PubChem BioAssay AID1919017 (Molecular Pharmacology Branch, DTP, NCI, 2023)

Tested on: SW1271 complex spheroids with HUVEC/MSC, growth, % test/control
Assay: Anticancer human tumor SW1271 cell line growth inhibition [AhR];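 also: spheroids exposed to agents for 7 days before readout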
Conditions: for IC50: curve of first compound; for viability, T/C: stronger effect = lower value
How it was run: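 Spheroids combined tumor cells with HUVEC endothelial cells and human MSCs as stroma. AhR antagonists were paired with standard or investigational drugs, each dosed in half-log steps down from near clinical Cmax, or from 10 microM where Cmax was unknown.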

[1] = second compound 0.1 µM, first compound 0.00949 µM
[2] = second compound 0.1 µM, first compound 0.03 µM
[3] = second compound 0.1 µM, first compound 0.0949 µM
[4] = second compound 0.1 µM, first compound 0.3 µM
[5] = second compound 0.1 µM, first compound 0.949 µM
[6] = second compound 0.1 µM, first compound 3 µM
[7] = second compound 0.316 µM, first compound 0.00949 µM
[8] = second compound 0.316 µM, first compound 0.03 µM
[9] = second compound 0.316 µM, first compound 0.0949 µM
[10] = second compound 0.316 µM, first compound 0.3 µM
[11] = second compound 0.316 µM, first compound 0.949 µM
[12] = second compound 0.316 µM, first compound 3 µM
[13] = second compound 1 µM, first compound 0.00949 µM
[14] = second compound 1 µM, first compound 0.03 µM
[15] = second compound 1 µM, first compound 0.0949 µM
[16] = second compound 1 µM, first compound 0.3 µM
[17] = second compound 1 µM, first compound 0.949 µM
[18] = second compound 1 µM, first compound 3 µM
[19] = second compound 3.16 µM, first compound 0.00949 µM
[20] = second compound 3.16 µM, first compound 0.03 µM
[21] = second compound 3.16 µM, first compound 0.0949 µM
[22] = second compound 3.16 µM, first compound 0.3 µM
[23] = second compound 3.16 µM, first compound 0.949 µM
[24] = second compound 3.16 µM, first compound 3 µM
[25] = second compound 10 µM, first compound 0.00949 µM
[26] = second compound 10 µM, first compound 0.03 µM
[27] = second compound 10 µM, first compound 0.0949 µM
[28] = second compound 10 µM, first compound 0.3 µM
[29] = second compound 10 µM, first compound 0.949 µM
[30] = second compound 10 µM, first compound 3 µM

Structure (SMILES)	IC50 (second compound 0.1 µM) [nM]	IC50 (second compound 0.316 µM) [nM]	IC50 (second compound 1 µM) [nM]	IC50 (second compound 3.16 µM) [nM]	IC50 (second compound 10 µM) [nM]	viability, T/C [1] [%]	viability, T/C [2] [%]	viability, T/C [3] [%]	viability, T/C [4] [%]	viability, T/C [7] [%]	viability, T/C [8] [%]	viability, T/C [9] [%]	viability, T/C [10] [%]	viability, T/C [13] [%]	viability, T/C [14] [%]	viability, T/C [15] [%]	viability, T/C [16] [%]	viability, T/C [19] [%]	viability, T/C [20] [%]	viability, T/C [21] [%]	further results
CCN(c1cc(-c2ccc(CN3CCOCC3)cc2)cc(C(=O)NCc2c(C)cc(C)[nH]c2=O)c1C)C1CCOCC1 + CC(CO)NC(=O)c1cc(-c2ccc(Cl)cc2)nn(-c2cnn(C)c2)c1=O	> 3000	> 3000	> 3000	> 3000	> 3000	122	117	106	97.2	101	108	120	113	86.6	105	119	94.5	91.9	88	103	viability, T/C [5]: 102%; viability, T/C [6]: 91.8%; viability, T/C [11]: 110%; viability, T/C [12]: 112%; viability, T/C [17]: 105%; viability, T/C [18]: 110%; viability, T/C [22]: 89.3%; viability, T/C [23]: 106%; viability, T/C [24]: 90.3%; viability, T/C [25]: 91.7%; viability, T/C [26]: 94.5%; viability, T/C [27]: 81.3%; viability, T/C [28]: 84.9%; viability, T/C [29]: 74.1%; viability, T/C [30]: 79.4%
Nc1ncn(C2CC(O)C(CO)S2)c(=O)n1 (stereo not given) + CC(CO)NC(=O)c1cc(-c2ccc(Cl)cc2)nn(-c2cnn(C)c2)c1=O	> 300	> 300	> 300	> 300	> 300	107	102	83.4	87.3	116	113	74	68.9	92	96	99.2	80.4	83.5	82	84.8	viability, T/C (second compound 0.1 µM, first compound 0.000949 µM): 110%; viability, T/C (second compound 0.1 µM, first compound 0.003 µM): 98.1%; viability, T/C (second compound 0.316 µM, first compound 0.000949 µM): 103%; viability, T/C (second compound 0.316 µM, first compound 0.003 µM): 87%; viability, T/C (second compound 1 µM, first compound 0.000949 µM): 93.4%; viability, T/C (second compound 1 µM, first compound 0.003 µM): 77.5%; viability, T/C (second compound 3.16 µM, first compound 0.000949 µM): 93%; viability, T/C (second compound 3.16 µM, first compound 0.003 µM): 76.5%; viability, T/C [22]: 68.1%; viability, T/C (second compound 10 µM, first compound 0.000949 µM): 87.3%; viability, T/C (second compound 10 µM, first compound 0.003 µM): 78.1%; viability, T/C [25]: 80.9%; viability, T/C [26]: 77.4%; viability, T/C [27]: 84.2%; viability, T/C [28]: 68%
O=C(C=Cn1cnc(-c2cc(C(F)(F)F)cc(C(F)(F)F)c2)n1)NNc1cnccn1 + CC(CO)NC(=O)c1cc(-c2ccc(Cl)cc2)nn(-c2cnn(C)c2)c1=O	996	911	625	450	756	108	76.7	93.1	70.5	74.4	79.2	72.3	63.7	73.9	86.7	70.8	60.4	85.2	75.3	87.3	viability, T/C [5]: 45.6%; viability, T/C [6]: 34.3%; viability, T/C [11]: 50%; viability, T/C [12]: 31.7%; viability, T/C [17]: 44%; viability, T/C [18]: 40.5%; viability, T/C [22]: 57.4%; viability, T/C [23]: 34.8%; viability, T/C [24]: 37.8%; viability, T/C [25]: 79%; viability, T/C [26]: 71.7%; viability, T/C [27]: 68.8%; viability, T/C [28]: 92.2%; viability, T/C [29]: 43.2%; viability, T/C [30]: 27%
